Test: Weights, CBC, blood chemistry and signs of toxicity, Table S1 sheet PD-2 (infected Aotus, twice a day for seven days)
Format: in vivo, Aotus lemurinus lemurinus
Conditions: oral 10 mg/kg twice a day/7 days
Protocol: Laboratory bred Aotus lemurinus lemurinus monkeys (0.75–0.89 kg) were maintained as described. […] Blood samples were collected before the treatment started (t = 0), 0.05 h, 0.5 h, 1 h, 2 h, 6 h, 24 h, 48 h, and 6, 12 and 18 days after the first dose from each monkey and processed as described below. Pharmacokinetic parameters were calculated using PKSolver. For efficacy studies, Aotus monkeys were inoculated intravenously with 5×10^6 parasites of the FVO strain of P. falciparum in an approved treatment protocol. […] Parasitaemia was determined by Giemsa-stained thick blood smears prepared daily from the marginal ear vein [41]. Blood samples were collected from each monkey and transferred to tubes containing lithium heparin, centrifuged and both plasma and blood cells were frozen at −80 °C until analysis. Animals received a physical examination and blood chemistry profiles were monitored after treatment as described previously. Any monkey not responding appropriately to treatment was cured of its infection with mefloquine (40 mg kg^−1). […] The day of clearance is defined as the first of three consecutive days in which the thick blood films are parasite negative. The day of recrudescence is the first of three consecutive days of positive thick blood films after a period of clearance. Suppression is defined as a transient decrease in the parasite count post-treatment without clearance.

Q: For Nc1nc2c(CN3CC(O)C(CO)C3)c[nH]c2c(=O)[nH]1 (stereo not shown) [BCX4945, 4′-deaza-1′-aza-2′-deoxy-1′-(9-methylene)-Immucillin-G], which “Mean Corpuscular Volume” value (25044 Male (ITM2), day 25) is on record?
A: 86 fL

Q: And the “Mean Hemoglobin Content” value (25044 Male (ITM2), day 25)?
A: 32.1 g/dL

Q: What about the “Mean Platelet Volume” value (25044 Male (ITM2), day 25) of the same compound?
A: 12.7 fL

Q: And the “Monocytes (%)” value (25044 Male (ITM2), day 25)?
A: 9.5%

Q: What about the “Monocytes (x 103/ul)” value (25044 Male (ITM2), day 25) of the same compound?
A: 1.9 x 103/ul

Q: And the Platelets (25044 Male (ITM2), day 25)?
A: 166000 µL⁻¹

Q: What about the “Red Cell Distribution Width” value (25044 Male (ITM2), day 25) of the same compound?
A: 22.2%

Q: What about the Reticulocytes (25044 Male (ITM2), day 25) of the same compound?
A: 2.6%

Q: What about the WEIGHT (25044 Male (ITM2), day 25) of the same compound?
A: 827 g

Q: And the “Blood Urea Nitrogen” value (25044 Male (ITM2), day -10)?
A: 11.3 mg/dL

Q: And the Creatine (25044 Male (ITM2), day -10)?
A: 0.5 mg/dL

Q: What about the Erythrocytes (25044 Male (ITM2), day -10) of the same compound?
A: 5.93e+06 µL⁻¹

Q: What about the “Glutamate Pyruvate Transaminase” value (25044 Male (ITM2), day -10) of the same compound?
A: 17.1 U/L

Q: And the “Granulocytes (%)” value (25044 Male (ITM2), day -10)?
A: 13.3%

Q: And the “Granulocytes (x 103/ul)” value (25044 Male (ITM2), day -10)?
A: 4.2 x 103/ul

Q: And the Hematocrit (25044 Male (ITM2), day -10)?
A: 44.6%

Q: And the Hemoglobin (25044 Male (ITM2), day -10)?
A: 15.8 g/dL

Q: What about the Leucocytes (25044 Male (ITM2), day -10) of the same compound?
A: 31300 µL⁻¹

Q: And the “Lymphocytes (%)” value (25044 Male (ITM2), day -10)?
A: 76.1%

Q: What about the “Lymphocytes (x 103/ul)” value (25044 Male (ITM2), day -10) of the same compound?
A: 23.8 x 103/ul

Q: And the “Mean Corpuscular Hemoglobin” value (25044 Male (ITM2), day -10)?
A: 26.7 pg

Q: What about the “Mean Corpuscular Volume” value (25044 Male (ITM2), day -10) of the same compound?
A: 75.2 fL

Q: And the “Mean Hemoglobin Content” value (25044 Male (ITM2), day -10)?
A: 35.5 g/dL

Q: And the “Mean Platelet Volume” value (25044 Male (ITM2), day -10)?
A: 13.1 fL

Q: What about the “Monocytes (%)” value (25044 Male (ITM2), day -10) of the same compound?
A: 10.6%

Q: And the “Monocytes (x 103/ul)” value (25044 Male (ITM2), day -10)?
A: 3.3 x 103/ul

Q: What about the Platelets (25044 Male (ITM2), day -10) of the same compound?
A: 236000 µL⁻¹

Q: And the “Red Cell Distribution Width” value (25044 Male (ITM2), day -10)?
A: 13%

Q: And the Reticulocytes (25044 Male (ITM2), day -10)?
A: 1.2%

Q: And the WEIGHT (25044 Male (ITM2), day -10)?
A: 814 g

Q: And the “Blood Urea Nitrogen” value (26027 Male (ITM3), day 8)?
A: 12.75 mg/dL

Q: And the Creatine (26027 Male (ITM3), day 8)?
A: 0.5 mg/dL

Q: What about the Erythrocytes (26027 Male (ITM3), day 8) of the same compound?
A: 4.51e+06 µL⁻¹

Q: What about the “Glutamate Pyruvate Transaminase” value (26027 Male (ITM3), day 8) of the same compound?
A: 28.1 U/L

Q: What about the “Granulocytes (%)” value (26027 Male (ITM3), day 8) of the same compound?
A: 18.4%

Q: What about the “Granulocytes (x 103/ul)” value (26027 Male (ITM3), day 8) of the same compound?
A: 2.2 x 103/ul

Q: What about the Hematocrit (26027 Male (ITM3), day 8) of the same compound?
A: 36.2%

Q: What about the Hemoglobin (26027 Male (ITM3), day 8) of the same compound?
A: 13.0 g/dL

Q: What about the Leucocytes (26027 Male (ITM3), day 8) of the same compound?
A: 11800 µL⁻¹

Q: And the “Lymphocytes (%)” value (26027 Male (ITM3), day 8)?
A: 70.2%

Q: And the “Lymphocytes (x 103/ul)” value (26027 Male (ITM3), day 8)?
A: 8.3 x 103/ul

Q: What about the “Mean Corpuscular Hemoglobin” value (26027 Male (ITM3), day 8) of the same compound?
A: 28.9 pg

Q: And the “Mean Corpuscular Volume” value (26027 Male (ITM3), day 8)?
A: 80.2 fL

Q: What about the “Mean Hemoglobin Content” value (26027 Male (ITM3), day 8) of the same compound?
A: 36 g/dL

Q: And the “Mean Platelet Volume” value (26027 Male (ITM3), day 8)?
A: 11.7 fL

Q: What about the “Monocytes (%)” value (26027 Male (ITM3), day 8) of the same compound?
A: 11.4%

Q: And the “Monocytes (x 103/ul)” value (26027 Male (ITM3), day 8)?
A: 1.3 x 103/ul

Q: And the Platelets (26027 Male (ITM3), day 8)?
A: 216000 µL⁻¹

Q: And the “Red Cell Distribution Width” value (26027 Male (ITM3), day 8)?
A: 11.8%

Q: And the Reticulocytes (26027 Male (ITM3), day 8)?
A: 1.4%

Q: And the WEIGHT (26027 Male (ITM3), day 8)?
A: 890 g

Q: And the “Blood Urea Nitrogen” value (26027 Male (ITM3), day 12)?
A: 12.9 mg/dL

Q: What about the Creatine (26027 Male (ITM3), day 12) of the same compound?
A: 0.5 mg/dL

Q: What about the Erythrocytes (26027 Male (ITM3), day 12) of the same compound?
A: 4.4e+06 µL⁻¹

Q: And the “Glutamate Pyruvate Transaminase” value (26027 Male (ITM3), day 12)?
A: 33.4 U/L

Q: And the “Granulocytes (%)” value (26027 Male (ITM3), day 12)?
A: 26.5%

Q: And the “Granulocytes (x 103/ul)” value (26027 Male (ITM3), day 12)?
A: 4.8 x 103/ul

Q: What about the Hematocrit (26027 Male (ITM3), day 12) of the same compound?
A: 36.1%

Q: And the Hemoglobin (26027 Male (ITM3), day 12)?
A: 13.1 g/dL

Q: What about the Leucocytes (26027 Male (ITM3), day 12) of the same compound?
A: 18200 µL⁻¹

Q: What about the “Lymphocytes (%)” value (26027 Male (ITM3), day 12) of the same compound?
A: 67.6%

Q: And the “Lymphocytes (x 103/ul)” value (26027 Male (ITM3), day 12)?
A: 12.3 x 103/ul

Q: What about the “Mean Corpuscular Hemoglobin” value (26027 Male (ITM3), day 12) of the same compound?
A: 29.8 pg

Q: What about the “Mean Corpuscular Volume” value (26027 Male (ITM3), day 12) of the same compound?
A: 82.1 fL

Q: And the “Mean Hemoglobin Content” value (26027 Male (ITM3), day 12)?
A: 36.3 g/dL

Q: What about the “Mean Platelet Volume” value (26027 Male (ITM3), day 12) of the same compound?
A: 12.2 fL

Q: And the “Monocytes (%)” value (26027 Male (ITM3), day 12)?
A: 5.9%

Q: And the “Monocytes (x 103/ul)” value (26027 Male (ITM3), day 12)?
A: 1.1 x 103/ul

Q: What about the Platelets (26027 Male (ITM3), day 12) of the same compound?
A: 339000 µL⁻¹

Q: What about the “Red Cell Distribution Width” value (26027 Male (ITM3), day 12) of the same compound?
A: 12.1%

Q: What about the Reticulocytes (26027 Male (ITM3), day 12) of the same compound?
A: 2.6%

Q: And the WEIGHT (26027 Male (ITM3), day 12)?
A: 890 g

Q: And the “Blood Urea Nitrogen” value (26027 Male (ITM3), day 15)?
A: 17.15 mg/dL

Q: And the Creatine (26027 Male (ITM3), day 15)?
A: 0.512 mg/dL

Q: What about the Erythrocytes (26027 Male (ITM3), day 15) of the same compound?
A: 4.77e+06 µL⁻¹

Q: What about the “Glutamate Pyruvate Transaminase” value (26027 Male (ITM3), day 15) of the same compound?
A: 27.1 U/L

Q: What about the “Granulocytes (%)” value (26027 Male (ITM3), day 15) of the same compound?
A: 32.6%

Q: What about the “Granulocytes (x 103/ul)” value (26027 Male (ITM3), day 15) of the same compound?
A: 4 x 103/ul

Q: What about the Hematocrit (26027 Male (ITM3), day 15) of the same compound?
A: 40.6%

Q: And the Hemoglobin (26027 Male (ITM3), day 15)?
A: 14.5 g/dL

Q: What about the Leucocytes (26027 Male (ITM3), day 15) of the same compound?
A: 12200 µL⁻¹

Q: And the “Lymphocytes (%)” value (26027 Male (ITM3), day 15)?
A: 63%

Q: And the “Lymphocytes (x 103/ul)” value (26027 Male (ITM3), day 15)?
A: 7.7 x 103/ul

Q: And the “Mean Corpuscular Hemoglobin” value (26027 Male (ITM3), day 15)?
A: 30.4 pg

Q: What about the “Mean Corpuscular Volume” value (26027 Male (ITM3), day 15) of the same compound?
A: 85 fL

Q: And the “Mean Hemoglobin Content” value (26027 Male (ITM3), day 15)?
A: 35.8 g/dL

Q: And the “Monocytes (%)” value (26027 Male (ITM3), day 15)?
A: 4.4%

Q: What about the “Monocytes (x 103/ul)” value (26027 Male (ITM3), day 15) of the same compound?
A: 0.5 x 103/ul

Q: And the Platelets (26027 Male (ITM3), day 15)?
A: 245000 µL⁻¹

Q: What about the “Red Cell Distribution Width” value (26027 Male (ITM3), day 15) of the same compound?
A: 18.5%

Q: What about the Reticulocytes (26027 Male (ITM3), day 15) of the same compound?
A: 3.1%

Source: PMC3214022, “Plasmodium falciparum Parasites Are Killed by a Transition State Analogue of Purine Nucleoside Phosphorylase in a Primate Animal Model” (PLoS ONE, 2011)
